For test [1], the system named is IP6K2-HSP90 binding. Put plainly: In vitro HSP90-IP6K2 binding assay with purified proteins. The arrangement: species or system human. The conditions noted are these: data not shown. The source says: (§1) FIG. 3A, 3B, 3C. […] FIG. 3E.
For test [2], the target named is IP6K2-HSP90 binding (Homo sapiens, UniProt P07900). Nature of the test: Co-immunoprecipitation of HSP90 with IP6K2 from drug-treated cells. The class given is cell-based. The conditions noted are these: for effect on IP6K2-HSP90 binding, coimmunoprecipitation: HEK 293 cells; for effect on binding of HSP90 with IP6K2, coimmunoprecipitation: myc-IP6K2-transfected HeLa cells, CP 30 overnight, NB 500 μM overnight, ST 1 μM 6 h, AAG 1 μM overnight. The protocol: as §1
Cell culture: HeLa and HEK 293 were cultured as described (18). […] HEK293 and HeLa cells were transiently transfected using polyfect transfection reagent (Qiagen). siRNAs were transfected with ‘Hiperfect’ transfection reagent (Qiagen).
Co-immunoprecipitation: Cells/mouse brain were homogenised in lysis buffer (20 mM Tris pH 7.4, 150 mM NaCl, 0.5% NP-40, and protease inhibitor cocktails). Equal amounts of protein were immunoprecipitated at 4° C. overnight using the protein A/G agarose beads in the presence of antibody. After immunoprecipitation, beads were washed four times with lysis buffer. Co-immunoprecipitates were resolved by SDS-PAGE and analysed by western blotting.

The target of another test is HSP90 (Homo sapiens, UniProt P07900). Put plainly: HSP90 binding to ATP-agarose beads. The settings on record: increasing concentrations, FIG. 7. The source says:
Beads were washed with wash buffer and run on 4-12% SDS-PAGE. Bound HSP90 was detected by western blotting with anti-HSP90 monoclonal antibody.

The subject of test [3] is IP6K2. Put plainly: Intracellular localization of IP6K2 (nuclei isolation, fluorescence microscopy). The class given is cell-based. The settings on record: for effect on intracellular localization of IP6K2: drug-treated cells; for effect on nuclear vs cytosolic myc-IP6K2, nuclei isolation and densitometry: 60 μg total protein per lane, anti-myc blot. The protocol: FIG. 4A-4F. HSP90 regulates intracellular localization of IP6K2. FIG. 4A. […] Following drug treatment, nuclei were isolated from the rest of the cytoplasm. In each lane, 60 μg of total protein was loaded and the localization of IP6K2 assessed with an anti-myc antibody. Bands were analyzed by densitometry and changes in localization were calculated with the basal distribution of IP6K2 as a control. […] FIG. 4B. GFP-IP6K2 stably expressed in HEK 293 cells is distributed to a similar extent in cytosol and nucleus. Cells were stained with Hoechst stain for nucleus. FIG. 4C. Overexpression of pDSRed-HSP90 in HEK293 stably expressing GFP-IP6K2 retains IP6K2 completely in the cytosol. HSP90 also co-localizes well with IP6K2 as indicated by the yellow color of the merged picture. FIG. 4D. […] FIG. 4E. […] Cells overexpressing HSP90 (arrow a) display co-localization of IP6K2-HSP90 in the cytosol, whereas in cells lacking overexpressed HSP90 (arrow b), IP6K2 is nuclear. FIG. 4F. Effects of HSP90 depletion on intracellular localization of IP6K2. In HeLa, cells transiently expressed GFP-IP6K2 occurs diffusely throughout cells. Depletion of HSP90 by RNAi (depletion is 100% as shown in FIG. 6), leads to nuclear accumulation of IP6K2.
Isolation of nuclei: Nuclei were separated from other cytoplasmic components using commercial kits (See ‘Reagents’ section). Preparation was checked each time by running appropriate controls for nucleus (p84).
Fluorescence microscopy: HeLa cells were transfected with pEGFP+IP6K1/IP6K2/IP6K3, either alone or with pDsRed HSP90α with or without drug or siRNA treatment, fixed with ice cold methanol, stained with Hoechst stain for nucleus and observed under an Ultraview1 confocal microscope.

For test [4], the system named is HeLa cells. Nature of the test: Cell death / survival (MTT assay) with IP6K2 overexpression. The class given is cell-based. The conditions noted are these: HeLa cells transfected with IP6K2. From the text: (§2) FIG. 5A. […] FIG. 5B. […] FIG. 5C. […] FIG. 5D. […] FIG. 5E.
(Formazan colour is commonly taken as a measure of viable cells.)

The test system of test [5] is HeLa cells. The conditions noted are these: reference 10; cited from earlier work.
The subject of test [6] is IP6K2. Nature of the test: IP7 measurement in vivo (IP6K activity as IP7/IP6 ratio in [3H]inositol labeled cells). The settings on record: HeLa cells with or without overexpression of IP6K2.
In test [7] the target is T1, IP6K2-HSP90 binding.
T1 construct: other: purified proteins; 250 nM HSP90 from HeLa preincubated with d
Nature of the test: In vitro HSP90-IP6K2 binding assay with purified proteins. Also on record: species or system human. The settings on record: purified proteins; 250 nM HSP90 from HeLa preincubated with drug 30 min 37° C., then myc-IP6K2 beads; western blot; read-out: concentration reducing IP6K2-HSP90 binding by 50%.
Excerpt: as §1
In general terms: Immunoblotting shows a protein as a band on a membrane.

For test [8], the system named is HeLa cells. Nature of the test: Cell death (% apoptotic nuclei) in IP6K2 siRNA depleted cells. The conditions noted are these: IP6K2 RNA interference (~40% less IP7 formation). The class given is cell-based.
Excerpt: as §2

Test [9] addresses T2, IP6K2-HSP90 binding (Homo sapiens, UniProt Q9UHH9).
T2 construct: purified endogenous HSP90 (HeLa); made in house; host or cells: HSP90 purified from HeLa cells (endogenous); myc-IP6K2 immunoprecipitated from transfected HEK 293 cells
T2 sequence (Q9UHH9 1-426): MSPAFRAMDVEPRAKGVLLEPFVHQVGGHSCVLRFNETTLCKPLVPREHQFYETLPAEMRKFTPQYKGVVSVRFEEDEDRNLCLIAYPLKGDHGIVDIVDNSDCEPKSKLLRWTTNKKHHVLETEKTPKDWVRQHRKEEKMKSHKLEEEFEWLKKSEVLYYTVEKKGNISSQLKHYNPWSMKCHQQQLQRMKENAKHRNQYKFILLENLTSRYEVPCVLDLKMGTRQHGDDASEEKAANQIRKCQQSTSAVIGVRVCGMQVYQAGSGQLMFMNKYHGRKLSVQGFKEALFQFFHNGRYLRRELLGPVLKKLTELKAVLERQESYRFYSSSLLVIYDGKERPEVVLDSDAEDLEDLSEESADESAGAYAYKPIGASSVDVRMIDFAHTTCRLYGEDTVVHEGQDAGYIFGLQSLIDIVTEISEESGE
Put plainly: In vitro HSP90-IP6K2 binding assay with purified proteins. The conditions noted are these: IP6K2 preincubated with increasing concentrations of IP6 15 min, then HSP90 1 h.
Excerpt: as §1

“Also recorded” adds a separate entry of the source.

“p23: a co-chaperone which binds HSP90 with high affinity”: in the test with IP6K2-HSP90 binding [1], the “effect of p23 on in vitro IP6K2-HSP90 binding” value is reported as “only influences in vitro IP6K2-HSP90 binding at a high molar ratio (1:20)”. In the test with IP6K2-HSP90 binding [2] (HeLa cells, data not shown), the “effect of p23 on IP6K2-HSP90 coprecipitation” value is “does not affect their coprecipitation in HeLa cells”.
As for `CN[C@@H]1C[C@H]2O[C@@](C)([C@@H]1OC)n1c3ccccc3c3c4c(c5c6ccccc6n2c5c31)C(=O)NC4` [staurosporine], the “effect on HSP90 binding to ATP-agarose beads” value on HSP90 is recorded as “inhibits binding of HSP90 to ATP-agarose beads in a concentration dependent manner”. Moreover, at IP6K2-HSP90 binding [2], the “effect on IP6K2-HSP90 binding, coimmunoprecipitation” value is given as “diminish IP6K2-HSP90 binding” and the “effect on binding of HSP90 with IP6K2, coimmunoprecipitation” value is reported as “disrupt the binding of HSP90 with IP6K2”. In addition, the “effect on intracellular localization of IP6K2” value (“effect … of IP6K2” below) in the test on IP6K2 [3] was “elicits mitochondrial translocation of IP6K2”. Moreover, the “change of drug's apoptotic action on IP6K2 overexpression” value (“change of drug's apoptotic action” below) in the test on HeLa cells [4] is on record as “markedly enhanced by IP6K2 overexpression”. The “change of drug's apoptotic effects on IP6K2 depletion, previously reported” value with HeLa cells [5] is “IP6K2 depletion prevents the apoptotic effects”. Also, the “effect on IP6K2 activity / IP7 formation in cells” value in the test on IP6K2 [6] is on record as “augmented IP6K2 activity”. In addition, in the test with IP6K2 [6] (listed as ST), the “effect on IP6K2 activity / IP7 formation in cells” value is reported as “increase IP6K activity”.
`N.N.[Cl][Pt][Cl]` [cisplatin]: the IC50 on IP6K2-HSP90 binding [7] lay in the range of 1 to 5 µM. Further, at IP6K2-HSP90 binding [2], the “effect on IP6K2-HSP90 binding, coimmunoprecipitation” value is “diminish IP6K2-HSP90 binding”. Besides, on IP6K2-HSP90 binding [2], the “effect on binding of HSP90 with IP6K2, coimmunoprecipitation” value was “disrupt the binding of HSP90 with IP6K2”. Further, the “effect … of IP6K2” value in the test with IP6K2 [3] is “enhance nuclear levels of IP6K2”. In addition, the “change of drug's apoptotic action” value with HeLa cells [4] is listed as “markedly enhanced by IP6K2 overexpression”. Moreover, the “change of drug-elicited cell death in IP6K2 depleted cells” value (“change of drug-elicited cell death” below) in the test on HeLa cells [8] is given as “reduced by almost half”. Besides, the figures for the “effect on IP6K2 activity / IP7 formation in cells” value in the test on IP6K2 [6] and in the test with IP6K2 [6] (listed as CP) were “augmented IP6K2 activity” and “increase IP6K activity”, respectively.
Turning to `O=P(O)(O)O[C@H]1[C@H](OP(=O)(O)O)[C@@H](OP(=O)(O)O)[C@H](OP(=O)(O)O)[C@@H](OP(=O)(O)O)[C@H]1OP(=O)(O)O` [IP6], at IP6K2-HSP90 binding [9], the “effect of IP6 on in vitro binding of HSP90 to myc IP6K2” value is reported as “abolished”.
For the compound `CO[C@@H]1[C@@H](OC(N)=O)[C@@H](O)[C@H](Oc2ccc3c(O)c(NC(=O)c4ccc(O)c(CC=C(C)C)c4)c(=O)oc3c2C)OC1(C)C` [novobiocin], the IC50 on IP6K2-HSP90 binding [7] is ~200 µM. In the test on IP6K2 [3], the “effect on nuclear vs cytosolic myc-IP6K2, nuclei isolation and densitometry” value is “increases nuclear and decreases cytosolic IP6K2”; the “effect … of IP6K2” value is given as “enhance nuclear levels of IP6K2”. For the same compound, the “change of drug's apoptotic action” value in the test with HeLa cells [4] is given as “markedly enhanced by IP6K2 overexpression”. The “change of drug-elicited cell death” value in the test on HeLa cells [8] is on record as “reduced by almost half”. The “effect on IP6K2 activity / IP7 formation in cells” value in the test on IP6K2 [6] was “augmented IP6K2 activity”. Also, the “effect on IP6K2 activity / IP7 formation in cells” value in the test with IP6K2 [6] (listed as NB) was “increase IP6K activity”.
Take `C=CCNC1=C2C[C@@H](C)C[C@H](OC)[C@H](O)[C@@H](C)/C=C(\C)[C@H](OC(N)=O)[C@@H](OC)/C=C\C=C(/C)C(=O)NC(=CC1=O)C2=O` [AAG, 17-aminoallyl geldanamycin]: in the test on IP6K2 [3], the “effect on nuclear vs cytosolic myc-IP6K2, nuclei isolation and densitometry” value is reported as “elicits the opposite effect”; the “effect … of IP6K2” value is “increases IP6K2 localization in the cytosol”. In addition, the “change of drug's apoptotic action” value in the test on HeLa cells [4] was “unaffected by IP6K2 overexpression”. For the same compound, the “change of drug-elicited cell death” value in the test on HeLa cells [8] was “unaffected by IP6K2 depletion”. For the same compound, the “effect on IP6K2 activity / IP7 formation in cells” value in the test with IP6K2 [6] is listed as “diminishes IP6K activity; also recorded: less IP7 formation”.

The values above are taken from US8080367B2, “Regulation of cell survival by HSP90 and IP6K2” (The Johns Hopkins University, priority 2006, dated 2011).
